From patent US11415579B2, “Assay for measuring a rate of reaction between a target and a ligand candidate” (Imperial College Innovations Ltd., priority 2016, dated 2022)

Columns and labels:
[1] = biological target: T1, Cdk2(H71C) (C177A) (Homo sapiens, UniProt P24941, C177A/H71C); test: Kinetic thiol consumption assay with Cdk2 mutant H71C; type: binding; design: key to Rate enhancement, Cdk2 H71C: rate constant with Cdk2 ÷ rate constant with model thiol (fold); conditions: additional mutation C177A; for Rate constant with Cdk2 H71C: Protein: Cdk2, cysteine position H71C, in h^-1
T1 construct: poly-histidine; made in house; host or cells: E. coli
Method: (§1) To wells containing 150 μL thiol (Cdk2 or model thiol) (5 μM) in degassed phosphate buffer (pH 8) was added immobilized TCEP beads (2% v/v).
(§2) After incubation of the fluorescence plates for 1 hour at room temperature, fluorescence measurements (excitation/emission of 380/470 nm) were taken on a PerkinElmer EnVision multilabel plate reader and processed with EnVision Workstation version 1.12.
(§3) Fluorescence measurements were normalized against a DMSO/thiol only control and plotted against time.
(§4) Rate constants were calculated using GraphPad software Prism version 6 by fitting a first order exponential decay to the data. The rate constant for each acrylamide with Cdk2 was divided by the rate constant for that fragment with the model thiol to provide the rate enhancement for each ligand candidate.
(§5) A further set of set of additional Cdk2 mutants were screened, all containing the C177A mutation and therefore with only one cysteine on the surface: • F80C (without the K278C mutation) • H71C • S276C • N272 • T182C • R122C • S181C
(§6) Mutations were introduced by site-directed mutagenesis and the resulting cDNA was cloned into the pRSETA bacterial expression vector to generate a poly-histidine tagged Cdk2 fusion that was purified from E. coli using standard techniques.

[2] = biological target: T2, Cdk2(T182C) (C177A) (Homo sapiens, UniProt P24941, C177A/T182C); test: Kinetic thiol consumption assay with Cdk2 mutant T182C; type: binding; design: key to Rate enhancement, Cdk2 T182C: rate constant with Cdk2 ÷ rate constant with model thiol (fold); conditions: additional mutation C177A; for Rate constant with Cdk2 T182C: Protein: Cdk2, cysteine position T182C, in h^-1
T2 construct: poly-histidine; made in house; host or cells: E. coli
Method: as §1, §2, §3, §4, §5, §6

[3] = biological target: T3, Cdk2(R122C) (C177A) (Homo sapiens, UniProt P24941, C177A/R122C); test: Kinetic thiol consumption assay with Cdk2 mutant R122C; type: binding; design: key to Rate enhancement, Cdk2 R122C: rate constant with Cdk2 ÷ rate constant with model thiol (fold); conditions: additional mutation C177A; for Rate constant with Cdk2 R122C: Protein: Cdk2, cysteine position R122C, in h-1
T3 construct: poly-histidine; made in house; host or cells: E. coli
Method: as §1, §2, §3, §4, §5, §6

[4] = biological target: T4, Cdk2(N272C) (C177A) (Homo sapiens, UniProt P24941, C177A/N272C); test: Kinetic thiol consumption assay with Cdk2 mutant N272C; type: binding; design: key to Rate enhancement, Cdk2 N272: rate constant with Cdk2 ÷ rate constant with model thiol (fold); conditions: for Rate enhancement, Cdk2 N272: Cdk2 N272, additional mutation C177A; for Rate constant with Cdk2 N272C: Protein: Cdk2, cysteine position N272C, additional mutation C177A, in h^-1
T4 construct: poly-histidine; made in house; host or cells: E. coli
Method: as §1, §2, §3, §4, §5, §6

[5] = biological target: T5, Cdk2(S276C) (C177A) (Homo sapiens, UniProt P24941, C177A/S276C); test: Kinetic thiol consumption assay with Cdk2 mutant S276C; type: binding; design: key to Rate enhancement, Cdk2 S276C: rate constant with Cdk2 ÷ rate constant with model thiol (fold); conditions: additional mutation C177A; for Rate constant with Cdk2 S276C: Protein: Cdk2, cysteine position S276C, in h^-1
T5 construct: poly-histidine; made in house; host or cells: E. coli
Method: as §1, §2, §3, §4, §5, §6

[6] = biological target: T6, Cdk2(S181C) (C177A) (Homo sapiens, UniProt P24941, C177A/S181C); test: Kinetic thiol consumption assay with Cdk2 mutant S181C; type: binding; design: key to Rate enhancement, Cdk2 S181C: rate constant with Cdk2 ÷ rate constant with model thiol (fold); conditions: additional mutation C177A; for Rate constant with Cdk2 S181C: Protein: Cdk2, cysteine position S181C, in h^-1
T6 construct: poly-histidine; made in house; host or cells: E. coli
Method: as §1, §2, §3, §4, §5, §6

[7] = biological target: T7, Cdk2(C177A, F80C) (Homo sapiens, UniProt P24941, C177A/F80C); test: Kinetic thiol consumption assay with Cdk2 mutant F80C, incl. kobs versus concentration (Kd, k2); type: binding; design: key to Rate enhancement, Cdk2 F80C: Cdk2 rate constant divided by model-thiol rate constant; conditions: additional mutation C177A; for Rate constant with Cdk2 F80C: Protein: Cdk2, cysteine position F80C, in h^-1
T7 construct: poly-histidine; made in house; host or cells: E. coli
Method: Therefore the assay can be used to calculate both k2 and Kd by experimentally determining kobs at a suitable range of ligand candidate concentrations. Typically Kd and k2 would then be determined by fitting a hyperbolic curve to a plot of kobs against ligand candidate concentration (FIG. 9).
as §1, §2, §3, §4, §5, §6
Rate constants were calculated as described in the methodology section of Examples 1 and 2.

[8] = biological target: T8, human cyclin-dependent kinase 2 (Cdk2) (Homo sapiens, UniProt P24941); test: Kinetic thiol consumption assay with wild type Cdk2 (C177); type: binding; design: key to Rate enhancement, Cdk2 WT: k(Cdk2) divided by k(model thiol); Rate constant with Cdk2 (k(Cdk2)): unit not given here; conditions: for Rate enhancement, Cdk2 WT: no additional mutations; for Rate constant with Cdk2 WT: Protein: Cdk2, cysteine position WT, in h^-1
T8 construct: poly-histidine; made in house; host or cells: E. coli
Method: (§7) A library of 120 acrylamides was screened against a) human cyclin-dependent kinase 2 (Cdk2, which contains one surface exposed cysteine residue—C177), prepared by cloning cDNA into the pRSETA bacterial expression vector to generate a poly-histidine tagged Cdk2 fusion that was purified from E. coli using standard techniques, and b) a model thiol (specific details are given below). The structures of these 120 acrylamides are set out in Table 1, above.
as §1, §2, §3, §4

[9] = Kinetic thiol consumption assay with model thiol glutathione; type: physicochemical; design: Rate constant with glutathione (k(GSH)): unit not given here; conditions: for Rate constant with Glutathione: Protein: Glutathione, cysteine position NA, in h-1
Method: as §7, §1, §2, §3, §4
The model thiol in Example 1 is glutathione (GSH). Hits were defined as fragments where kCdk2/kGSH>5.8 (empirically determined as 3 standard deviations over the mean).

[10] = 500 μM ligand, 5 μM thiol, phosphate buffer pH 8

Rate enhancement, Cdk2 H71C [1]	Rate constant with Cdk2 H71C [1]	Rate enhancement, Cdk2 T182C [2]	Rate constant with Cdk2 T182C [2]	Rate enhancement, Cdk2 R122C [3]	Rate constant with Cdk2 R122C [3]	Rate enhancement, Cdk2 N272 [4]	Rate constant with Cdk2 N272C [4]	Rate enhancement, Cdk2 S276C [5]	Rate enhancement, Cdk2 S181C [6]	Rate constant with Cdk2 S181C [6]	Rate enhancement, Cdk2 F80C [7]	Rate constant with Cdk2 F80C [7]	Rate enhancement, Cdk2 WT [8]	Rate constant with Cdk2 WT [8]	Rate constant with Cdk2 S276C [5]	Rate constant with Cdk2 (k(Cdk2)) [8, 10]	k(Cdk2)/k(GSH) rate enhancement ([8]; model thiol glutathione)	SMILES	Rate constant with Glutathione [9]	Rate constant with glutathione (k(GSH)) [9, 10]
7.5652E−12	3.825E−14	2.567	0.01298	0.1371	0.0006932	1.133	0.00573	0	0.2957	0.001495	49.31	0.2493	1.276	0.006451				Cn1cc(S(=O)(=O)N2CCOCC2)cc1C(=O)NC(=O)CCl [EN002]		
0.3485	2.131	1.394	8.524	0.2211	1.352	0.3977	2.432	0.5145	0.06554	0.4008	0.0006656	0.00407	1.608	9.832	3.146			C=CS(=O)(=O)c1ccccc1 [EN001]	6.115	
0.7334	0.03145	1.268	0.05436	0.285	0.01222	3.076	0.1319	0.7654	0.247	0.01059	0.3102	0.0133	0.6915	0.02965	0.03282			C=CC(=O)N1CCn2c(C(=O)NC3CC3)ccc2C1C (centres unmarked) [CA-040/230]	0.04288	
0.1025	0.06183	4.219	2.544	0.3799	0.2291	0.198	0.1194	0.9531	0.3144	0.1896	0.00861	0.005192	2.833	1.708	0.5747			O=S1(=O)C=CC(Br)C1 (centres unmarked) [EN010]	0.603	
																0.00195	0.2764	C=CC(=O)N(CC(=O)N1CCCC1)CC1CCCO1 (centres unmarked) [CA-080]		0.00706
0.852	0.002158	11.33	0.02869	0.5681	0.001439	0		13.55	5.886	0.01491	0.8693	0.002202	6.167	0.01562	0.03433			O=C(CCl)NCCc1c[nH]c2ccccc12 [EN005]	0.002533	
0		0.9515	0.001386			0	0.001652	0			0.9144	0.001332	0					N#Cc1ccncn1 [EN007]		
0		0.1321	0.005911	0		0.2037	0.009116	1.5439E−13	0.02434	0.001089	4.64	0.2076	0		6.908E−15			FC(F)(F)c1cc(Cl)ncc1Br [EN008]		
5.4624E−12	3.52E−14	1.07	0.006898	0.132	0.0008504	0		0.921	0.6302	0.004061	3.246	0.02092	0		0.005935			CN(C#N)Cc1ccccc1 [EN009]		

SMILES	Rate enhancement, Cdk2 H71C [1]	Rate constant with Cdk2 H71C [1]	Rate enhancement, Cdk2 T182C [2]	Rate constant with Cdk2 T182C [2]	Rate enhancement, Cdk2 R122C [3]	Rate constant with Cdk2 R122C [3]	Rate enhancement, Cdk2 N272 [4]	Rate constant with Cdk2 N272C [4]	Rate enhancement, Cdk2 S276C [5]	Rate enhancement, Cdk2 S181C [6]	Rate constant with Cdk2 S181C [6]	Rate enhancement, Cdk2 F80C [7]	Rate constant with Cdk2 F80C [7]	Rate enhancement, Cdk2 WT [8]	Rate constant with Cdk2 WT [8]	Rate constant with Cdk2 S276C [5]	Rate constant with Cdk2 (k(Cdk2)) [8, 10]	k(Cdk2)/k(GSH) rate enhancement ([8]; model thiol glutathione)	Rate constant with Glutathione [9]	Rate constant with glutathione (k(GSH)) [9, 10]
O=C(CCl)N1CCCCCC1 [EN011]	0.08604	0.0114	0.4574	0.06061	0.02161	0.002863	0.1463	0.01938	1.075	0.09796	0.01298	0		0.6051	0.08018	0.1424			0.1325	
